{"source": "paper PMC3946379", "about": "(Archives of biochemistry and biophysics, 2013)", "target": "Aspartate aminotransferase (AAT) (Escherichia coli, UniProt P00509)", "sequence (P00509 whole entry)": "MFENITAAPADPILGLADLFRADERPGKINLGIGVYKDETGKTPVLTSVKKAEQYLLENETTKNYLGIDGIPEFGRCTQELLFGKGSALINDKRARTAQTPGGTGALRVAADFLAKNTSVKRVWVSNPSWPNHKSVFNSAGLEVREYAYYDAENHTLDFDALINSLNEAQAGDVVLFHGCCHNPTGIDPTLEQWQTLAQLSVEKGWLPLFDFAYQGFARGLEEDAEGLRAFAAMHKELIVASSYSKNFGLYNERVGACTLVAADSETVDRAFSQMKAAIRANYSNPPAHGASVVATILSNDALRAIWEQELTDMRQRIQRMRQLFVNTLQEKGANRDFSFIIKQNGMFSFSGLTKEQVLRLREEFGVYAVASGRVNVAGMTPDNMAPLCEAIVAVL", "test": "N-15 NMR of crystalline enzyme", "type": "binding", "details": "PLP form, low pH; closed conformation; own earlier work reviewed"}
{"smiles": "O=C(O)/C=C\\C(=O)O", "note": "[maleate]", "values": [{"measurement": "N-15 NMR of crystalline enzyme", "result": "In crystalline samples of both the unliganded and maleate-liganded enzyme forms at low pH"}]}
